Patent US20220169654A1, “New Organic Compounds” (Servier Pharmaceuticals LLC, priority 2020, published 2022)

Experiments:
HCT116 MTAP+/+ = assay: Inhibition of cellular proliferation, 4 days, Cell Titer Glo, HCT116 MTAP+/+; format: cell-based; details: Homo sapiens, HCT-116, 96 h, IC50 bin with Max Inh., read-out: 4 Day Relative Growth Inhibition (MTAP +/+)
Method: (§1) Test compound impact on cancer cell growth was assessed by treating cancer cells with compound for 4 days and then measuring proliferation using an ATP-based cell proliferation readout (Cell Titer Glo, Promega Corporation).
(§2) In a typical assay an isogenic pair of HCT116 human colon carcinoma cell lines which vary only in MTAP deletion status (HCT116 MTAP+/+ and HCT116 MTAP−/−) were plated in 96-well dishes at appropriate cell density. Following 24 hours, cells were then treated with the candidate MAT2A inhibitor. Prior to addition to cells, the compound was first serially diluted in 100% DMSO, typically as a 3-fold serial dilution starting at 500× top dose with 10 dose points including DMSO only control. Compound was then transferred to a working stock plate in cell culture media by adding 5 μL of compound in DMSO to 495 μL of cell culture media. This working stock was then added to cells via a further 5-fold dilution, by adding 25 μL of working stock to 100 μL of cells in culture media. Following compound addition, cells were incubated at 37° C./5% CO2 for 4 days.
(§3) To measure inhibition of cellular proliferation, cells were allowed to equilibrate to room temperature for 30 minutes, and were then treated with 125 μL of Cell Titer Glo reagent. The plate was then covered with aluminum foil and shaken for 15 minutes to ensure complete mixing and full cell lysis. Luminescent signal was then measured using a plate-based luminometer Veritas version 1.9.2 using ATP standard curve to confirm assay reproducibility from run to run. This luminescence measure was converted to a proliferation index by subtracting from each data point the ATP luminescence signal measured from a bank (no cells) well and dividing by the ATP luminescence signal measured in 0.2% DMSO control well adjusted for signal in blank well. Compound activity was then represented as a percentage change in proliferation relative to a within-plate DMSO control against log 10 of compound concentration in molar (M) units.
(§4) Specific compounds disclosed herein were tested in the foregoing assay and they were determined to inhibit cellular proliferation with an IC50. See, Table 1 below.

[1] = test system: SAM in HCT116 human colon carcinoma cell line with MTAP gene deleted (MTAP −/−); assay: Cellular assay of target engagement (SAM), LC-MS/MS, 72 hrs; format: cell-based; details: HCT-116, IC50 bin with Max Inh., read-out: Cell 72 h SAM Inhibition (MTAP −/−)
Method: Measurement of MAT2A activity in cells was made by direct quantitation of the abundance of the product of its enzymatic activity, SAM. Cancer cells were treated with candidate MAT2A inhibitors for a suitable incubation period, and the cells were then lysed using a reagent which quenched any further enzyme activity. Soluble metabolites including SAM were collected and SAM itself was directly measured from the lysate using quantitative LC-MS/MS.
A typical assay was performed using an HCT116 human colon carcinoma cell line which was genetically engineered to delete the MTAP gene (commercially available from Horizon Discovery). This cell line was utilized because it was determined that loss of the MTAP gene predicts sensitivity to MAT2A inhibitors. Cells were plated in 96-well dishes at appropriate cell density. Following 24 hours, cells were then treated with the candidate MAT2A inhibitor. Prior to addition to cells, the compound was first serially diluted in 100% DMSO, typically as a 3-fold serial dilution starting at 500× top dose with 10 dose points including DMSO only control. Compound was then transferred to a working stock plate in cell culture media by adding 5 μL of compound in DMSO to 495 μL of cell culture media. This working stock was then added to cells via a further 5-fold dilution, by adding 25 μL of working stock to 100 μL of cells in culture media. Following compound addition, cells were incubated at 37° C./5% CO2 for 72 hrs.
To quantitate SAM levels following compound treatment, cells were gently washed once in ammonium carbonate buffer (75 mM at pH 7.4), placed on dry ice, and lysed with metabolite extraction buffer (80% cold methanol and 20% water (v/v) with acetic acid at 1M final concentration with 200 ng/mL deuterated d3-SAM as internal control). Following centrifugation at 4° C. at 3,200 rpm for 30 minutes, the supernatant was collected and stored at −80° C. until analysis by Liquid Chromatography with tandem Mass Spectrometry (LC-MS/MS). LC-MS/MS analysis was performed using an API6500 Mass Spectrometer (Sciex, Framingham, Mass., USA) operating in positive ion spray mode and equipped with a Waters UPLC Acquity (Waters, Milford, Mass., USA) BEH Amide column. Multiple Reaction Monitoring data was acquired for SAM and the d3-SAM standard, using a mass transition pair at m/z 399.2→250.1 and 402.2→250.1, respectively. In a typical LC-MS/MS analysis, the initial flow rate was 0.5 ml/min of 25% mobile phase A (acetonitrile and water at 5:95 (v/v) with 1% formic acid and 10 mM ammonium acetate) and 75% mobile phase B (acetonitrile and water at 95:5 (v/v) with 1% formic acid and 10 mM ammonium acetate), 0.2-0.5 minutes with 75%-35% mobile phase B, 25%-65% mobile phase A, at 0.5 min 65% mobile phase A and 35% mobile phase B, 1.0-1.1 minutes with 35%-75% mobile phase B, 65%-25% mobile phase A, at 1.1 min 25% mobile phase A and 75% mobile phase B with a total run time of 1.5 minutes.
Specific compounds disclosed herein were tested in the foregoing assay and they were determined to inhibit SAM with an IC50. See, Table 1 below.

HCT116 MTAP−/− = assay: Inhibition of cellular proliferation, 4 days, Cell Titer Glo, HCT116 MTAP−/−; format: cell-based; details: Homo sapiens, HCT-116, 96 h, IC50 bin with Max Inh., read-out: 4 Day Relative Growth Inhibition (MTAP −/−)
Method: as §1, §2, §3, §4

MAT2A homodimer = target: T1, MAT2A homodimer (Homo sapiens, UniProt P31153); assay: MAT2A inhibition (biochemical, liberated phosphate, PiColorLock Gold); details: recombinant MAT2A homodimer; IC50 bin with Max Inh.; read-out: Enzyme Inhibition Bin
T1 construct: inferred from Ni sepharose purification with imidazole elution; made in house; host or cells: Sf9 insect cells, baculovirus (Bac to Bac, pFASTBAC1)
T1 sequence (P31153 whole entry): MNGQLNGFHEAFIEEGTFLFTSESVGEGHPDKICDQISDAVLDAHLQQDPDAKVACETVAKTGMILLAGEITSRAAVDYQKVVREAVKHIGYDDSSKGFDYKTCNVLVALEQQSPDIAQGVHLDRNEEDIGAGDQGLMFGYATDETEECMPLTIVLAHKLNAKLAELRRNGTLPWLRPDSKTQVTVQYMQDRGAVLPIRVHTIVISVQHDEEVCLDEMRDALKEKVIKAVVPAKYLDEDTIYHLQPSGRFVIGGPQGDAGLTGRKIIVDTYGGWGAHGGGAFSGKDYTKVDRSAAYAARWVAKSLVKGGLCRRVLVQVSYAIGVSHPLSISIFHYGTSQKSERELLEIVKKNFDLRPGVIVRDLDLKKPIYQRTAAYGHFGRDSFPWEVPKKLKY
Method: Mat2A protein was expressed by recombinant baculovirus in SF9 infected cells using the Bac to Bac system cloned into the pFASTBAC1 vector (Invitrogen, Carlsbad, Calif.). Recombinant MAT2A was isolated from the cell lysate of 150 g of infected cells using HP Ni sepharose column chromatography. Recombinant MAT2A homodimer was eluted with 250 and 500 mM imidazole, and fractions containing MAT2A were identified by sodium dodecyl sulfate polyacrylamide gel electrophoresis and pooled.
For determination of the inhibitory potency of compounds against the MAT2A homodimer, protein was diluted to 4 μg/mL in assay buffer (50 mM Tris, pH 8.0, 50 mM KCl, 15 mM MgCl2, 0.3 mM EDTA, 0.005% [w/v] bovine serum albumin [BSA]). Test compound was prepared in 100% dimethyl sulfoxide (DMSO) at 50× the desired final concentration. A 1 μL volume of compound dilution was added to 40 μL of enzyme dilution and the mixture was allowed to equilibrate for 60 minutes at 25° C. The enzymatic assay was initiated by the addition of 10 μL of substrate mix (500 μM ATP, pH 7.0, 400 μM L-methionine in 1× assay buffer), and the mixture was incubated for a further 60 minutes at 25° C. The reaction was halted and the liberated phosphate released by the enzyme in stoichiometric amounts by the production of S-adenosyl methionine (SAM) was measured using the PiColorLock Gold kit (Innova Biosciences, UK). Absolute product amounts were determined by comparison to a standard curve of potassium phosphate buffer, pH 8.0. The compounds were also tested in a secondary assay utilizing 1 μg/mL MAT2A and incubated for 5 hours at 25° C. before halting and processing as above.
Specific compounds disclosed herein were tested in the foregoing assay and they were determined to inhibit MAT2A with an IC50. See, Table 1 below.

Compound	IC50 (HCT116 MTAP+/+) [nM]	IC50 [1] [nM]	IC50 (HCT116 MTAP−/−) [nM]	IC50 (MAT2A homodimer) [nM]
Cn1cc2cc(-n3nc4ccn(CC5CC5)c4c(-c4ccc(OC(F)F)nc4)c3=O)ccc2n1 [Example 113, 5-(cyclopropylmethyl)-4-(6-(difluoromethoxy)pyridin-3-yl)-2-(2-methyl-2H-indazol-5-yl)-2,5-dihydro-3H-pyrrolo[3,2-c]pyridazin-3-one]	> 1000	< 100	< 100	< 100
Cn1cc2cc(-n3nc4c(C#N)cn(CC5CC5)c4c(-c4ccc(OC(F)F)nc4)c3=O)ccc2n1 [Example 114, 5-(cyclopropylmethyl)-4-(6-(difluoromethoxy)pyridin-3-yl)-2-(2-methyl-2H-indazol-5-yl)-3-oxo-3,5-dihydro-2H-pyrrolo[3,2-c]pyridazine-7-carbonitrile]	> 1000	< 100	< 100	< 100
CC(C)Cn1ccc2nn(-c3ccc4nn(C)cc4c3)c(=O)c(-c3ccc(OC(F)F)cc3)c21 [Example 115, 4-(4-(difluoromethoxy)phenyl)-5-isobutyl-2-(2-methyl-2H-indazol-5-yl)-2,5-dihydro-3H-pyrrolo[3,2-c]pyridazin-3-one]	> 1000	< 100	< 100	< 100
CC(C)Cn1cc(C#N)c2nn(-c3ccc4nn(C)cc4c3)c(=O)c(-c3ccc(OC(F)F)cc3)c21 [Example 116, 4-(4-(difluoromethoxy)phenyl)-5-isobutyl-2-(2-methyl-2H-indazol-5-yl)-3-oxo-3,5-dihydro-2H-pyrrolo[3,2-c]pyridazine-7-carbonitrile]	> 1000	< 100	100 to 1000	< 100
Cn1cc2cc(-n3nc4c(I)cn(CC5CC5)c4c(-c4ccc(C5CC5)nc4)c3=O)ccc2n1 [Example 117, 5-(cyclopropylmethyl)-4-(6-cyclopropylpyridin-3-yl)-7-iodo-2-(2-methyl-2H-indazol-5-yl)-2,5-dihydro-3H-pyrrolo[3,2-c]pyridazin-3-one]	> 1000	< 100	< 100	< 100
Cn1cc2cc(-n3nc4ccn(CC5CC5)c4c(-c4ccc(C(F)(F)F)nc4)c3=O)ccc2n1 [Example 118, 5-(cyclopropylmethyl)-2-(2-methyl-2H-indazol-5-yl)-4-(6-(trifluoromethyl)pyridin-3-yl)-2,5-dihydro-3H-pyrrolo[3,2-c]pyridazin-3-one]	> 1000	< 100	< 100	< 100
Cn1cc2cc(-n3nc4c(C#N)cn(CC5CC5)c4c(-c4ccc(C(F)(F)F)nc4)c3=O)ccc2n1 [Example 119, 5-(cyclopropylmethyl)-2-(2-methyl-2H-indazol-5-yl)-3-oxo-4-(6-(trifluoromethyl)pyridin-3-yl)-3,5-dihydro-2H-pyrrolo[3,2-c]pyridazine-7-carbonitrile]	> 1000	> 1000	> 1000	< 100
Cn1cc2cc(-n3nc4c(C#N)cn(CC5CC5)c4c(-c4ccc(C5(C#N)CC5)nc4)c3=O)ccc2n1 [Example 120, 4-(6-(1-cyanocyclopropyl)pyridin-3-yl)-5-(cyclopropylmethyl)-2-(2-methyl-2H-indazol-5-yl)-3-oxo-3,5-dihydro-2H-pyrrolo[3,2-c]pyridazine-7-carbonitrile]	> 1000	100 to 1000	> 1000	< 100
[2H]C([2H])([2H])Oc1ccc(-n2nc3ccn(CC4CC4)c3c(-c3ccc(C4CC4)nc3)c2=O)cc1 [Example 122, 5-(cyclopropylmethyl)-4-(6-cyclopropylpyridin-3-yl)-2-(4-(methoxy-d3)phenyl)-2,5-dihydro-3H-pyrrolo[3,2-c]pyridazin-3-one]	> 1000	< 100	< 100	< 100
Cn1cc2cc(-n3nc4ccn(CC5CC5)c4c(-c4ccc(C(F)F)nc4)c3=O)ccc2n1 [Example 123, 5-(cyclopropylmethyl)-4-(6-(difluoromethyl)pyridin-3-yl)-2-(2-methyl-2H-indazol-5-yl)-2,5-dihydro-3H-pyrrolo[3,2-c]pyridazin-3-one]	100 to 1000	< 100	< 100	< 100
[2H]C([2H])([2H])Oc1ccc(-n2nc3c(C#N)cn(CC4CC4)c3c(-c3ccc(C4CC4)nc3)c2=O)cc1 [Example 124, 5-(cyclopropylmethyl)-4-(6-cyclopropylpyridin-3-yl)-2-(4-(methoxy-d3)phenyl)-3-oxo-3,5-dihydro-2H-pyrrolo[3,2-c]pyridazine-7-carbonitrile]	> 1000	< 100	100 to 1000	< 100
CCCn1cc(C#N)c2nn(-c3ccc4nn(C)cc4c3)c(=O)c(-c3ccc(C4CC4)nc3)c21 [Example 127, 4-(6-cyclopropylpyridin-3-yl)-2-(2-methyl-2H-indazol-5-yl)-3-oxo-5-propyl-3,5-dihydro-2H-pyrrolo[3,2-c]pyridazine-7-carbonitrile]	> 1000	< 100	100 to 1000	< 100
